One series has as its system MRSA 16-34. In words: MIC, agar dilution, MRSA 16-34. The series is classed as cell-based. As to conditions: Staphylococcus aureus; MRSA 16-34; read-out: MIC. A general note: In agar dilution the substance is mixed into plates at graded concentrations.
Another series deals with VISA ATCC 700699. Nature of the series: MIC, agar dilution, VISA ATCC 700699. The format is cell-based. The note with it: Staphylococcus aureus; VISA ATCC 700699; read-out: MIC.
A further series deals with MRSA ATCC -BAA-976. Nature of the series: MIC, agar dilution, MRSA ATCC-BAA-976 (clindamycin-resistant). The format is cell-based. The note with it: Staphylococcus aureus; MRSA ATCC-BAA-976, clindamycin-resistant S. aureus; read-out: MIC.
The test system of another series is MRSA 13-18. In words: MIC, agar dilution, MRSA 13-18. The series is classed as cell-based. As to conditions: Staphylococcus aureus; MRSA 13-18; read-out: MIC.
Series [1] relates to drug-susceptible strains: MSSA, MSSE, S. saprophyticus, S. hominis. Nature of the series: MIC across the panel of drug-susceptible Gram-positive strains. The note with it: drug-susceptible Gram-positive strains of Table 1; for MIC: 18 h, read-out: MICs (range over strains). The series is classed as cell-based. From the text: SAR study for antibacterial activity against drug-susceptible Gram-positive bacteria was initially carried out, taking Lev and compound 1 as reference drugs. […] Bacteria strains used in this study were from the ATCC collection and clinical isolates in Chinese hospitals. The influence of the methylenedioxy ring was explored first, and compounds 6 and 10 were created and tested.

Another series deals with MSSA 16-1. Nature of the series: MIC, agar dilution, MSSA 16-1 (clinical isolate). The format is cell-based, S. aureus. The note with it: Staphylococcus aureus; MSSA 16-1, isolated from patients in China; read-out: MIC.
In another series the test system is MRSA ATCC 43300. Nature of the series: MIC, agar dilution, MRSA ATCC 43300. The format is cell-based. As to conditions: Staphylococcus aureus; MRSA ATCC 43300; read-out: MIC.
The next series deals with MRSA 13-23. Nature of the series: MIC, agar dilution, MRSA 13-23. As to conditions: Staphylococcus aureus; MRSA 13-23; read-out: MIC. The series is classed as cell-based.
A further series relates to MSSE 16-5. In words: MIC, agar dilution, MSSE 16-5 (clinical isolate). As to conditions: Staphylococcus epidermidis; MSSE 16-5, isolated from patients in China; read-out: MIC. The series is classed as cell-based, S. epidermidis.
The next series relates to MSSA ATCC 29213. Nature of the series: MIC, agar dilution, MSSA ATCC 29213. The format is cell-based, S. aureus. As to conditions: Staphylococcus aureus; MSSA ATCC 29213; read-out: MIC.
The next series relates to MSSA 15. In words: MIC, agar dilution, MSSA 15 (clinical isolate). The series is classed as cell-based, S. aureus. As to conditions: Staphylococcus aureus; MSSA 15, isolated from patients in China; read-out: MIC.
The subject of the next series is MRSA ATCC-B AA-1708. Nature of the series: MIC, agar dilution, MRSA ATCC-BAA-1708 (mupA positive). The format is cell-based. The note with it: Staphylococcus aureus; MRSA ATCC-BAA-1708, mupA positive (mupirocin resistance); read-out: MIC.
Another series has as its system S.h ATCC 35982. In words: MIC, agar dilution, S.h ATCC 35982. The series is classed as cell-based. As to conditions: Staphylococcus hominis, ATCC35982; S. hominis ATCC 35982; read-out: MIC.
For another series, the system named is MSSE ATCC 12228. In words: MIC, agar dilution, MSSE ATCC 12228. The format is cell-based, S. epidermidis. As to conditions: Staphylococcus epidermidis, ATCC12228; MSSE ATCC 12228; read-out: MIC.
The next series concerns VISA ATCC 700698. In words: MIC, agar dilution, VISA ATCC 700698. The series is classed as cell-based. The note with it: Staphylococcus aureus; VISA ATCC 700698; read-out: MIC.
A further series relates to S.s ATCC 15305. In words: MIC, agar dilution, S.s ATCC 15305. The note with it: Staphylococcus saprophyticus, ATCC15305; S. saprophyticus ATCC 15305; read-out: MIC. The format is cell-based.
The test system of another series is MRSE 16-5. In words: MIC, agar dilution, MRSE 16-5. The format is cell-based, S. epidermidis. As to conditions: Staphylococcus epidermidis; MRSE 16-5; read-out: MIC.
The test system of a further series is MRSE 13-3. Nature of the series: MIC, agar dilution, MRSE 13-3. The format is cell-based, S. epidermidis. The note with it: Staphylococcus epidermidis; MRSE 13-3; read-out: MIC.
A further series concerns MSSA/MRSA tested strains. Further details: method as in PMID 29795764, PMID 30145374. The note with it: cited from earlier work.
Series [2] in a line: Stability in liver microsomes, human. The series is classed as in vitro ADME. The protocol:
The assay was performed with liver microsomes from CD-1 mouse, SD rat and human. […] The reaction can be started by the addition of liver microsomes or the tested compound or NADPH. Aliquots were sampled at 0, 5, 10, 20, 30 and 60 min incubation, and enzymatic reaction was stopped by protein precipitation in cold acetonitrile including 100 ng/mL tolbutamide and 100 ng/mL labetalol as internal standard. After centrifugation, samples were then analyzed by LC/MS/MS [26].
In general terms: Liver microsomes are a subcellular fraction often used to study metabolism.

Series [3] in a line: Stability in liver microsomes, rat. The series is classed as in vitro ADME, SD rat. Here is the method:
(§1) The assay was performed with liver microsomes from CD-1 mouse, SD rat and human. Microsomes in 100 mM potassium phosphate buffer (0.5 mg/mL microsomal protein), cofactor MgCl2 (10 mM), tested compound (1 μM, cosolvent (0.01% DMSO), 0.99% CH3OH), and then NADPH (1 mM) at 37 °C for 60 min. The reaction can be started by the addition of liver microsomes or the tested compound or NADPH. Aliquots were sampled at 0, 5, 10, 20, 30 and 60 min incubation, and enzymatic reaction was stopped by protein precipitation in cold acetonitrile including 100 ng/mL tolbutamide and 100 ng/mL labetalol as internal standard. After centrifugation, samples were then analyzed by LC/MS/MS [26].

The nature of series [4]: Stability in liver microsomes, mouse. The format is in vitro ADME, CD-1 mouse. The protocol: as §1

Consider 6 compounds from paper PMC6429263, “Evolution and Antibacterial Evaluation of 8-Hydroxy-cycloberberine Derivatives as a Novel Family of Antibacterial Agents Against MRSA” (Molecules, 2019).

For the compound `COc1ccc2c(c[n+]3ccc4cc5c(c6c(Cc7cccc(C)c7)cc2c3c46)OCO5)c1O` [13h, 1,2-Methylenedioxy-8-hydroxy-9-methoxy-13-m-methylbenzylcycloberberine chloride], the MIC is 4 µg/mL in the series on MRSA 16-34; 4 µg/mL in the series on VISA ATCC 700699; 8 µg/mL in the series on MRSA ATCC -BAA-976; 8 µg/mL with MRSA 13-18; 2 to 16 µg/mL in [1]; 4 µg/mL in the series on MSSA 16-1. Moreover, the MIC in the series on MRSA ATCC 43300 was 8 µg/mL; with MRSA 13-23, 8 µg/mL; in the series on MSSE 16-5, 2 µg/mL; with MSSA ATCC 29213 it was 4 µg/mL; with MSSA 15, 4 µg/mL; in the series with MRSA ATCC-B AA-1708 it was 4 µg/mL. For the same compound, the MIC came to 8 µg/mL with S.h ATCC 35982; 4 µg/mL in the series on MSSE ATCC 12228; 4 µg/mL in the series with VISA ATCC 700698; 16 µg/mL in the series with S.s ATCC 15305; 4 µg/mL with MRSE 16-5; 4 µg/mL in the series on MRSE 13-3.

`COc1ccc2c(c[n+]3ccc4cc5c(c6c(Cc7ccccc7[N+](=O)[O-])cc2c3c46)OCO5)c1O` [13p, 1,2-Methylenedioxy-8-hydroxy-9-methoxy-13-o-nitrobenzylcycloberberine chloride]: the MIC is 4 µg/mL in the series with MRSA 16-34; 4 µg/mL in the series on VISA ATCC 700699; 8 µg/mL with MRSA ATCC -BAA-976; 16 µg/mL with MRSA 13-18; 4 to 16 µg/mL in [1]; 4 µg/mL with MSSA 16-1. Further, the MIC with MRSA ATCC 43300 stood at 8 µg/mL; with MRSA 13-23 it was 8 µg/mL; in the series with MSSE 16-5 it was 4 µg/mL; with MSSA ATCC 29213, 8 µg/mL; in the series on MSSA 15, 8 µg/mL; in the series on MRSA ATCC-B AA-1708, 4 µg/mL. The MIC with S.h ATCC 35982 amounted to 8 µg/mL; with MSSE ATCC 12228 it was 8 µg/mL; in the series on VISA ATCC 700698, 8 µg/mL; in the series on S.s ATCC 15305 it was 16 µg/mL; in the series on MRSE 16-5, 8 µg/mL; in the series with MRSE 13-3 it was 32 µg/mL.

`COc1ccc2c(c[n+]3c4c2ccc2c5c(cc(c24)CC3)OCO5)c1OC` [CBBR, cycloberberine]: the MIC in the series with MRSA 16-34, with VISA ATCC 700699, with MRSA ATCC -BAA-976, with MRSA 13-18, in the series on MSSA 16-1 and in the series on MRSA ATCC 43300 was above 64 µg/mL throughout. For the same compound, the MIC in the series with MRSA 13-23, in the series with MSSE 16-5, with MSSA ATCC 29213, in the series on MSSA 15, with MRSA ATCC-B AA-1708 and in the series with S.h ATCC 35982 was above 64 µg/mL in each case. In addition, the MIC in the series on MSSE ATCC 12228, in the series with VISA ATCC 700698, in the series on S.s ATCC 15305, in the series with MRSE 16-5 and with MRSE 13-3 was above 64 µg/mL each time. Moreover, the “bactericidal activity” value with MSSA/MRSA tested strains (MSSA/MRSA) is given as “no bactericidal activity at all”. For the same compound, the “MICs (range over strains)” value in the series on MSSA/MRSA tested strains (tested strains such as MRSA) was above 64 µg/mL.

As for `C[C@]12CC[C@H]3[C@@H](CCC4=CC(=O)CC[C@@]43C)[C@@H]1CC[C@@H]2O` [Tes, testosterone, reference compound], the half-life – broadly, how long it takes for the measured level to halve – at 1 μM in [2] (1 μM) is 12.9 min; in series [3] (SD, 1 μM), 0.6 min; in [4] (CD-1, 1 μM), 5.5 min. The “Remaining Ratio (T = 60 min)” value in series [2] (60 min) amounted to 3.9%; in [3] (60 min), 0%; in [4] (60 min), 0%. The microsomal CLint at 1 μM in series [3] (SD, 1 μM, read-out: CL Int (mic)) is 2350 µL/min/mg; in series [4] (CD-1, 1 μM, read-out: CL Int (mic)), 254 µL/min/mg.

`COc1ccc2c(c[n+]3c4c2ccc2c(OC)c(OC)cc(c24)CC3)c1O` [compound 6, 1,2-Dimethoxy-8-hydroxy-9-methoxycycloberberine Chloride]: the MIC in the series on MRSA 16-34, with VISA ATCC 700699, in the series with MRSA ATCC -BAA-976, in the series with MRSA 13-18, with MSSA 16-1 and in the series on MRSA ATCC 43300 was above 64 µg/mL each time. Besides, the MIC with MRSA 13-23, with MSSE 16-5, in the series on MSSA ATCC 29213, with MSSA 15, in the series on MRSA ATCC-B AA-1708 and in the series on S.h ATCC 35982 was above 64 µg/mL in each case. Also, the MIC with MSSE ATCC 12228, with VISA ATCC 700698, in the series on S.s ATCC 15305, with MRSE 16-5 and in the series with MRSE 13-3 was above 64 µg/mL throughout. Also, the “antimicrobial activity” value in [1] is on record as “lost the antimicrobial activities partially or completely”.

In the case of `COc1ccc2c(c[n+]3c4c2ccc2c(O)c(O)cc(c24)CC3)c1O` [compound 10, 1,2,8-Trihydroxy-9-methoxycycloberberine Chloride], the MIC in the series with MRSA 16-34 amounted to 16 µg/mL; in the series on VISA ATCC 700699, 32 µg/mL; in the series with MRSA ATCC -BAA-976, 64 µg/mL; in the series with MRSA 13-18 it was 32 µg/mL; in the series on MSSA 16-1, 32 µg/mL; in the series with MRSA ATCC 43300 it was 32 µg/mL. Moreover, the MIC is 64 µg/mL with MRSA 13-23; 16 µg/mL in the series on MSSE 16-5; 32 µg/mL in the series on MSSA ATCC 29213; 16 µg/mL in the series on MSSA 15; 16 µg/mL in the series on MRSA ATCC-B AA-1708; 32 µg/mL in the series with S.h ATCC 35982. The MIC in the series on MSSE ATCC 12228 worked out at 8 µg/mL; in the series on VISA ATCC 700698, 32 µg/mL; with S.s ATCC 15305, 32 µg/mL; in the series on MRSE 16-5 it was 16 µg/mL; in the series on MRSE 13-3 it was 32 µg/mL. In [1], the “antimicrobial activity” value was “lost the antimicrobial activities partially or completely”.
